Results published in US9216173B2, “2-Pyridyl carboxamide-containing spleen tyrosine kinase (SYK) inhibitors” (Merck Sharp & Dohme Corp., priority 2011, dated 2015).

These compounds were tested against T1, recombinant human GST-SYK (Homo sapiens, UniProt P43405) (assay: Homogeneous Time-Resolved Fluorescence (HTRF) assay for the recombinant human Syk enzyme). Details: GST-hSYK 5 pM, ATP 25 μM, 10-dose titration 10 μM to 0.508 nM; read-out: rhSYK Activity (IC50 rating).
T1 construct: purchased Carna Biosciences 08-176
Format: biochemical
Summary of the method: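 GST-hSYK fusion phosphorylates a peptide for 45 min at room temperature. Quenched with EDTA buffer containing 2 nM Eu-anti-phosphotyrosine antibody and 70 nM SA-APC. HTRF signal read after 30 min.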

IC50, < 0.01 µM:
CCc1cccc(Nc2cc(NC[C@@H](N)COC)cnc2C(N)=O)n1 [Example 1.100, 5-{[(2R)-2-amino-3-methoxypropyl]amino}-3-[(6-ethylpyridin-2-yl)amino]pyridine-2-carboxamide]
NC(=O)c1ncc(N[C@@H]2CCCC[C@@H]2N)cc1Nc1cccc(-c2cn(Cc3ccccc3)nn2)n1 [Example 1.101, 5-{[(1R,2S)-2-aminocyclohexyl]amino}-3-{[6-(1-benzyl-1H-1,2,3-triazol-4-yl)pyridin-2-yl]amino}pyridine-2-carboxamide]
Cc1cc(Nc2cc(N[C@@H]3CCCC[C@@H]3N)cnc2C(N)=O)nc(-n2nccn2)c1 [Example 1.102, 5-{[(1R,2S)-2-aminocyclohexyl]amino}-3-{[4-methyl-6-(2H-1,2,3-triazol-2-yl)pyridin-2-yl]amino}pyridine-2-carboxamide]
NC(=O)c1ncc(NCC2(N)CC2)cc1Nc1cccc(C(F)(F)F)n1 [Example 1.103, 5-{[(1-aminocyclopropyl)methyl]amino}-3-{[6-(trifluoromethyl)pyridin-2-yl]amino}pyridine-2-carboxamide]
C[C@H](N)CNc1cnc(C(N)=O)c(Nc2cccc(C(F)(F)F)n2)c1 [Example 1.104, 5-{[(2S)-2-aminopropyl]amino}-3-{[6-(trifluoromethyl)pyridin-2-yl]amino}pyridine-2-carboxamide]
COC[C@H](N)CNc1cnc(C(N)=O)c(Nc2cccc(C(F)(F)F)n2)c1 [Example 1.105, 5-{[(2R)-2-amino-3-methoxypropyl]amino}-3-{[6-(trifluoromethyl)pyridin-2-yl]amino}pyridine-2-carboxamide]
NC(=O)c1ncc(N[C@H]2[C@@H](N)CCCC2(F)F)cc1Nc1cccc(C(F)(F)F)n1 [Example 1.106, 5-{[(1S,6S)-6-amino-2,2-difluorocyclohexyl]amino}-3-{[6-(trifluoromethyl)pyridin-2-yl]amino}pyridine-2-carboxamide]
Cc1cc2ccsc2c(Nc2cc(N[C@@H]3CCCC[C@@H]3N)cnc2C(N)=O)n1 [Example 1.107, 5-{[(1R,2S)-2-aminocyclohexyl]amino}-3-[(5-methylthieno[2,3-c]pyridin-7-yl)amino]pyridine-2-carboxamide]
Cc1cc(Nc2cc(N[C@@H]3CCCC[C@@H]3N)cnc2C(N)=O)nc(-c2cnn(C)c2)c1 [Example 1.110, 5-{[(1R,2S)-2-aminocyclohexyl]amino}-3-{[4-methyl-6-(1-methyl-1H-pyrazol-4-yl)pyridin-2-yl]amino}pyridine-2-carboxamide]
COc1ccc(Nc2cc(N[C@@H]3CCCC[C@@H]3N)cnc2C(N)=O)nc1C [Example 1.111, 5-{[(1R,2S)-2-aminocyclohexyl]amino}-3-[(5-methoxy-6-methylpyridin-2-yl)amino]pyridine-2-carboxamide]
Cc1cc(Nc2cc(N[C@@H]3CCCC[C@@H]3N)cnc2C(N)=O)nc(-c2ccnn2C)c1 [Example 1.112, 5-{[(1R,2S)-2-aminocyclohexyl]amino}-3-{[4-methyl-6-(1-methyl-1H-pyrazol-5-yl)pyridin-2-yl]amino}pyridine-2-carboxamide]
Cc1cc(Nc2cc(N[C@@H]3CCCC[C@@H]3N)cnc2C(N)=O)nc(-c2cnn3c2CCCC3)c1 [Example 1.113, 5-{[(1R,2S)-2-aminocyclohexyl]amino}-3-{[4-methyl-6-(4,5,6,7-tetrahydropyrazolo[1,5-a]pyridin-3-yl)pyridin-2-yl]amino}pyridine-2-carboxamide]
Cc1cc(Nc2cc(N[C@@H]3CCCC[C@@H]3N)cnc2C(N)=O)nc(-c2cnc(C(C)(C)O)s2)c1 [Example 1.114, 5-{[(1R,2S)-2-aminocyclohexyl]amino}-3-({6-[2-(1-hydroxy-1-methylethyl)-1,3-thiazol-5-yl]-4-methylpyridin-2-yl}amino)pyridine-2-carboxamide]
